Measurements reported in patent publication US20250115583A1, “BICYCLIC INDAZOLE GLUCOCORTICOID RECEPTOR ANTAGONISTS” (Corcept Therapeutics Incorporated, priority 2021, published 2025).

Molecular target: glucocorticoid receptor (Homo sapiens (Human), UniProt P04150)
Assay: HepG2 TAT assay: inhibition of dexamethasone-induced tyrosine aminotransferase (TAT) activity
Assay type: cell-based
Settings: HepG2 cells, challenge of 100 nM dexamethasone, 18-24 hr; IC50 converted to Ki by Cheng and Prusoff equation
Procedure, shortened: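 Cells lysed 15 min at 4 °C; TAT enzyme reaction 2 h at 37 °C, stopped with KOH, 30 min further at 37 °C. Inhibition fitted to 4-parameter logistic.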

glucocorticoid receptor, sequence (P04150 whole entry): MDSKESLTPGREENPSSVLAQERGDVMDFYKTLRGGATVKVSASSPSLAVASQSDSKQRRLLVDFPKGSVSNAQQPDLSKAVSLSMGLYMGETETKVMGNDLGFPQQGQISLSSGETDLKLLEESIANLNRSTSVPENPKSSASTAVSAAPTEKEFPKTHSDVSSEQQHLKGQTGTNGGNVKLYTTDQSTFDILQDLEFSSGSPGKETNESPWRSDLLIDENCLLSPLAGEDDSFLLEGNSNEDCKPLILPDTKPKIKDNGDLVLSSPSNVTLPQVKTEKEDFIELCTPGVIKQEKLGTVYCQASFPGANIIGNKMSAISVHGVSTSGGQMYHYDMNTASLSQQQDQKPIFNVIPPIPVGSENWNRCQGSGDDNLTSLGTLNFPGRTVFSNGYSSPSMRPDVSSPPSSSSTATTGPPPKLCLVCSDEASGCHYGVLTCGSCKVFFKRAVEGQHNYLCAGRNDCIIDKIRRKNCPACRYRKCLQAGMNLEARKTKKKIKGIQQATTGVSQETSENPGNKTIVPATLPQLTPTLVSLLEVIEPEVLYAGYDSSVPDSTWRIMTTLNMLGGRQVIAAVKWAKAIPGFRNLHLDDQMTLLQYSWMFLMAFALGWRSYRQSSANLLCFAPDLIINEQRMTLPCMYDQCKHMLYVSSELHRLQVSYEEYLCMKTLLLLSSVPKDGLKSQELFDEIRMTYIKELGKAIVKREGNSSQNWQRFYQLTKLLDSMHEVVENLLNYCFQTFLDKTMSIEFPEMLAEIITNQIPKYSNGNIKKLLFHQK

Compound | Ki
Cc1cc2c(cnn2-c2ccc(F)cc2)cc1[C@@]12CN(C(=O)c3cccc(C(C)C)n3)C[C@@H]1[C@H]2c1ccccc1 (stereo in doubt) [Example 166, (1-(1-(4-fluorophenyl)-6-methyl-1H-indazol-5-yl)-6-phenyl-3-azabicyclo[3.1.0]hexan-3-yl)(6-isopropylpyridin-2-yl)methanone] | 47 nM
Cc1cc2c(cnn2-c2ccc(F)cc2)cc1[C@@]12CN(C(=O)c3ccc(C(F)(F)F)cn3)C[C@@H]1[C@H]2c1ccccc1 (stereo in doubt) [Example 168, (1-(1-(4-fluorophenyl)-6-methyl-1H-indazol-5-yl)-6-phenyl-3-azabicyclo[3.1.0]hexan-3-yl)(5-(trifluoromethyl)pyridin-2-yl)methanone] | 39 nM
COc1ccnc(C(=O)N2C[C@@H]3[C@@H](c4ccccc4)[C@]3(c3cc4cnn(-c5ccc(F)cc5)c4cc3C)C2)c1 (stereo in doubt) [Example 169, (1-(1-(4-fluorophenyl)-6-methyl-1H-indazol-5-yl)-6-phenyl-3-azabicyclo[3.1.0]hexan-3-yl)(4-methoxypyridin-2-yl)methanone] | 35 nM
Cc1cc2c(cnn2-c2ccc(F)cc2)cc1[C@@]12CN(C(=O)c3ncccn3)C[C@@H]1[C@H]2c1ccccc1 (stereo in doubt) [Example 171, (1-(1-(4-fluorophenyl)-6-methyl-1H-indazol-5-yl)-6-phenyl-3-azabicyclo[3.1.0]hexan-3-yl)(pyrimidin-2-yl)methanone] | 36 nM
Cc1cc2c(cnn2-c2ccc(F)cc2)cc1[C@@]12CN(C(=O)c3ccccc3)C[C@@H]1[C@H]2c1cccnc1 (stereo in doubt) [Example 173, (1-(1-(4-fluorophenyl)-6-methyl-1H-indazol-5-yl)-6-(pyridin-3-yl)-3-azabicyclo[3.1.0]hexan-3-yl)(phenyl)methanone] | 130 nM
Cc1cc2c(cnn2-c2ccc(F)cc2)cc1[C@@]12CN(C(=O)c3ccccc3N3CCOCC3)C[C@@H]1[C@H]2c1ccccc1 (stereo in doubt) [Example 174, (1-(1-(4-fluorophenyl)-6-methyl-1H-indazol-5-yl)-6-phenyl-3-azabicyclo[3.1.0]hexan-3-yl)(2-morpholinophenyl)methanone] | 39 nM
Cc1csc(C(=O)N2C[C@@H]3[C@@H](c4ccccc4)[C@]3(c3cc4cnn(-c5ccc(F)cc5)c4cc3C)C2)n1 (stereo in doubt) [Example 175, (1-(1-(4-fluorophenyl)-6-methyl-1H-indazol-5-yl)-6-phenyl-3-azabicyclo[3.1.0]hexan-3-yl)(4-methylthiazol-2-yl)methanone] | 13 nM
Cc1cnc(C(=O)N2C[C@@H]3[C@@H](c4ccccc4)[C@]3(c3cc4cnn(-c5ccc(F)cc5)c4cc3C)C2)s1 (stereo in doubt) [Example 176, (1-(1-(4-fluorophenyl)-6-methyl-1H-indazol-5-yl)-6-phenyl-3-azabicyclo[3.1.0]hexan-3-yl)(5-methylthiazol-2-yl)methanone] | 45 nM
Cc1cc2c(cnn2-c2ccc(F)cc2)cc1[C@@]12CN(C(=O)c3cc(C)n(C)n3)C[C@@H]1[C@H]2c1ccccc1 (stereo in doubt) [Example 177, (1,5-dimethyl-1H-pyrazol-3-yl)(1-(1-(4-fluorophenyl)-6-methyl-1H-indazol-5-yl)-6-phenyl-3-azabicyclo[3.1.0]hexan-3-yl)methanone] | 23 nM
Cc1cc2c(cnn2-c2ccc(F)cc2)cc1[C@@]12CN(Cc3ccccn3)C[C@@H]1[C@H]2c1ccccc1 (stereo in doubt) [Example 179, 1-(4-fluorophenyl)-6-methyl-5-(6-phenyl-3-(pyridin-2-ylmethyl)-3-azabicyclo[3.1.0]hexan-1-yl)-1H-indazole] | 48 nM
Cc1cc2c(cnn2-c2ccc(F)cc2)cc1[C@@]12CN(C(=O)c3ccccc3)C[C@@H]1[C@H]2CN1CCOCC1 (stereo in doubt) [Example 180, (1-(1-(4-fluorophenyl)-6-methyl-1H-indazol-5-yl)-6-(morpholinomethyl)-3-azabicyclo[3.1.0]hexan-3-yl)(phenyl)methanone] | 600 nM
Cc1cc2c(cnn2-c2ccc(F)cc2)cc1[C@@]12CN(C(=O)c3ccccc3)C[C@@H]1[C@]2(C)c1ccccc1 (stereo in doubt) [Example 182, (1-(1-(4-fluorophenyl)-6-methyl-1H-indazol-5-yl)-6-methyl-6-phenyl-3-azabicyclo[3.1.0]hexan-3-yl)(phenyl)methanone] | 180 nM
Cc1cc2c(cnn2-c2ccc(F)cc2)cc1[C@@]12CN(C(=O)c3ccccc3)C[C@@H]1[C@@]2(C)c1ccccc1 (stereo in doubt) [Example 183, (1-(1-(4-fluorophenyl)-6-methyl-1H-indazol-5-yl)-6-methyl-6-phenyl-3-azabicyclo[3.1.0]hexan-3-yl)(phenyl)methanone] | 37 nM
Cc1cc2c(cnn2-c2ccc(F)cc2)cc1[C@@]12CN(C(=O)c3ccccc3)C[C@@H]1[C@H]2Cc1ccccc1 (stereo in doubt) [Example 184, (6-benzyl-1-(1-(4-fluorophenyl)-6-methyl-1H-indazol-5-yl)-3-azabicyclo[3.1.0]hexan-3-yl)(phenyl)methanone] | 860 nM
Cc1cc2c(cnn2-c2ccc(F)cc2)cc1[C@@]12CN(c3ncccn3)C[C@@H]1[C@H]2c1ccccc1 (stereo in doubt) [Example 185, 1-(4-fluorophenyl)-6-methyl-5-(6-phenyl-3-(pyrimidin-2-yl)-3-azabicyclo[3.1.0]hexan-1-yl)-1H-indazole] | 100 nM
Cc1cc2c(cnn2-c2ccc(F)cc2)cc1[C@]12CN(C(=O)c3ccccc3)C[C@H]1[C@H]2c1ccccn1 (stereo in doubt) [Example 186, (1-(1-(4-fluorophenyl)-6-methyl-1H-indazol-5-yl)-6-(pyridin-2-yl)-3-azabicyclo[3.1.0]hexan-3-yl)(phenyl)methanone] | 630 nM
Cc1cc2c(cnn2-c2ccc(F)cc2)cc1C12CC(=O)CC1CN(C(=O)OC(C)(C)C)C2 (centres unmarked) [Example 1, tert-butyl 3a-(1-(4-fluorophenyl)-6-methyl-1H-indazol-5-yl)-5-oxohexahydrocyclopenta[c]pyrrole-2(1H)-carboxylate] | 370 nM
Cc1cc2c(cnn2-c2ccc(F)cc2)cc1C12CN(S(=O)(=O)c3cnn(C)c3)CC1CC(O)(c1nccs1)C2 (centres unmarked) [Example 2, 3a-(1-(4-fluorophenyl)-6-methyl-1H-indazol-5-yl)-2-((1-methyl-1H-pyrazol-4-yl)sulfonyl)-5-(thiazol-2-yl)octahydrocyclopenta[c]pyrrol-5-ol] | 490 nM
COC1(c2nccs2)CC2CN(S(=O)(=O)c3cnn(C)c3)CC2(c2cc3cnn(-c4ccc(F)cc4)c3cc2C)C1 (centres unmarked) [Example 3, 2-(3a-(1-(4-fluorophenyl)-6-methyl-1H-indazol-5-yl)-5-methoxy-2-((1-methyl-1H-pyrazol-4-yl)sulfonyl)octahydrocyclopenta[c]pyrrol-5-yl)thiazole] | 290 nM
Cc1cc2c(cnn2-c2ccc(F)cc2)cc1C12CN(S(=O)(=O)c3cnn(C)c3)CC1CC(F)(c1ccccc1)C2 (centres unmarked) [Example 4, 5-(5-fluoro-2-((1-methyl-1H-pyrazol-4-yl)sulfonyl)-5-phenylhexahydrocyclopenta[c]pyrrol-3a(1H)-yl)-1-(4-fluorophenyl)-6-methyl-1H-indazole] | 540 nM
